Test results published in ChEMBL document CHEMBL3885861, “Open TG-GATES”.

Species: Rattus norvegicus
Test: Open TG-GATES - Regimen: Single
Format: toxicity, organism-based, Sprague-Dawley
Set-up: regimen Single, gender Male, age 6 weeks
Conditions: in vivo, po, route gavage; for APTT / Bas / Eos / Fbg / Hb / Ht / Lym / MCH / MCHC / MCV / Mono / Neu / PT / Plat / RBC / Ret / WBC: tissue Blood; for KIDNEY_L / KIDNEY_R / KIDNEY_TOTAL: tissue Kidney; for LIVER: tissue Liver; for A/G / ALP / ALT / AST / BUN / CRE / Ca / Cl / DBIL / GLC / IP / K / LDH / Na / PL / RALB / TBIL / TC / TG / TP / gamma-GTP: tissue Plasma
[1] = 60 mg/kg, 3 h, dose level Middle
[2] = 60 mg/kg, 6 h, dose level Middle
[3] = 60 mg/kg, 9 h, dose level Middle
[4] = 60 mg/kg, 24 h, dose level Middle
[5] = 200 mg/kg, 3 h, dose level High
[6] = 200 mg/kg, 6 h, dose level High
[7] = 200 mg/kg, 9 h, dose level High
[8] = 200 mg/kg, 24 h, dose level High

CC(CN1c2ccccc2Sc2ccccc21)N(C)C (centres undefined) [PROMETHAZINE]
TERMINAL_BW [1]: 213.4 g
APTT [1]: 22.4 s
Bas [1]: 0%
Eos [1]: 1%
Fbg [1]: 317 mg/dL
Hb [1]: 13.2 g/dL
Ht [1]: 40.6%
Lym [1]: 71.6%
MCH [1]: 20.2 pg
MCHC [1]: 32.6%
MCV [1]: 62 fL
Mono [1]: 2.2%
Neu [1]: 25%
PT [1]: 16.4 s
Plat [1]: 126 x10_4/uL
RBC [1]: 655.2 x10_4/ul
Ret [1]: 7.3%
WBC [1]: 64.7 x10_2/uL
KIDNEY_L [1]: 0.9 g
KIDNEY_R [1]: 0.9 g
KIDNEY_TOTAL [1]: 1.9 g
LIVER [1]: 9.3 g
A/G [1]: 1.3
ALP [1]: 1673 IU/L
ALT [1]: 56.2 IU/L
AST [1]: 87.6 IU/L
BUN [1]: 9.6 mg/dL
CRE [1]: 0.2 mg/dL
Ca [1]: 10.5 mg/dL
Cl [1]: 105.6 meq/L
DBIL [1]: 0.024 mg/dL
GLC [1]: 172.8 mg/dL
IP [1]: 9.6 mg/dL
K [1]: 4.3 meq/L
LDH [1]: 222.6 IU/L
Na [1]: 142.6 meq/L
PL [1]: 132 mg/dL
RALB [1]: 3.1 g/dL
TBIL [1]: 0.016 mg/dL
TC [1]: 75 mg/dL
TG [1]: 50 mg/dL
TP [1]: 5.5 g/dL
gamma-GTP [1]: 1.2 IU/L
TERMINAL_BW [2]: 210 g
APTT [2]: 23.8 s
Bas [2]: 0%
Eos [2]: 0.8%
Fbg [2]: 322 mg/dL
Hb [2]: 13.4 g/dL
Ht [2]: 40.7%
Lym [2]: 77.2%
MCH [2]: 20.1 pg
MCHC [2]: 33%
MCV [2]: 61.1 fL
Mono [2]: 2.8%
Neu [2]: 18.4%
PT [2]: 16.3 s
Plat [2]: 112.6 x10_4/uL
RBC [2]: 667.8 x10_4/ul
Ret [2]: 7.3%
WBC [2]: 85.9 x10_2/uL
KIDNEY_L [2]: 0.9 g
KIDNEY_R [2]: 0.9 g
KIDNEY_TOTAL [2]: 1.8 g
LIVER [2]: 8.6 g
A/G [2]: 1.3
ALP [2]: 1478.6 IU/L
ALT [2]: 43.2 IU/L
AST [2]: 74.6 IU/L
BUN [2]: 9.4 mg/dL
CRE [2]: 0.2 mg/dL
Ca [2]: 10.9 mg/dL
Cl [2]: 105.2 meq/L
DBIL [2]: 0.016 mg/dL
GLC [2]: 180.6 mg/dL
IP [2]: 9.6 mg/dL
K [2]: 4.3 meq/L
LDH [2]: 192.2 IU/L
Na [2]: 141.8 meq/L
PL [2]: 125 mg/dL
RALB [2]: 3 g/dL
TBIL [2]: 0.022 mg/dL
TC [2]: 71.6 mg/dL
TG [2]: 49 mg/dL
TP [2]: 5.5 g/dL
gamma-GTP [2]: 1.4 IU/L
TERMINAL_BW [3]: 211 g
APTT [3]: 24.1 s
Bas [3]: 0%
Eos [3]: 1%
Fbg [3]: 315.8 mg/dL
Hb [3]: 13.3 g/dL
Ht [3]: 40.8%
Lym [3]: 78.6%
MCH [3]: 20.4 pg
MCHC [3]: 32.6%
MCV [3]: 62.5 fL
Mono [3]: 3%
Neu [3]: 17.2%
PT [3]: 16.6 s
Plat [3]: 122 x10_4/uL
RBC [3]: 652.4 x10_4/ul
Ret [3]: 7.6%
WBC [3]: 101.4 x10_2/uL
KIDNEY_L [3]: 0.9 g
KIDNEY_R [3]: 0.9 g
KIDNEY_TOTAL [3]: 1.8 g
LIVER [3]: 8.3 g
A/G [3]: 1.3
ALP [3]: 1318.2 IU/L
ALT [3]: 43.2 IU/L
AST [3]: 69.6 IU/L
BUN [3]: 11.6 mg/dL
CRE [3]: 0.2 mg/dL
Ca [3]: 10.7 mg/dL
Cl [3]: 106.2 meq/L
DBIL [3]: 0.02 mg/dL
GLC [3]: 179.2 mg/dL
IP [3]: 9.5 mg/dL
K [3]: 4.2 meq/L
LDH [3]: 155.8 IU/L
Na [3]: 140.2 meq/L
PL [3]: 131 mg/dL
RALB [3]: 3 g/dL
TBIL [3]: 0.026 mg/dL
TC [3]: 77 mg/dL
TG [3]: 46.8 mg/dL
TP [3]: 5.4 g/dL
gamma-GTP [3]: 1.2 IU/L
TERMINAL_BW [4]: 217.9 g
APTT [4]: 23.6 s
Bas [4]: 0%
Eos [4]: 1%
Fbg [4]: 311.6 mg/dL
Hb [4]: 13.4 g/dL
Ht [4]: 40.3%
Lym [4]: 80%
MCH [4]: 21.1 pg
MCHC [4]: 33.3%
MCV [4]: 63.4 fL
Mono [4]: 2.2%
Neu [4]: 16%
PT [4]: 16.7 s
Plat [4]: 126.1 x10_4/uL
RBC [4]: 635.4 x10_4/ul
Ret [4]: 6.8%
WBC [4]: 113 x10_2/uL
KIDNEY_L [4]: 1 g
KIDNEY_R [4]: 1 g
KIDNEY_TOTAL [4]: 1.9 g
LIVER [4]: 9.5 g
A/G [4]: 1.3
ALP [4]: 1785 IU/L
ALT [4]: 46.8 IU/L
AST [4]: 68 IU/L
BUN [4]: 17.6 mg/dL
CRE [4]: 0.2 mg/dL
Ca [4]: 10.8 mg/dL
Cl [4]: 106.4 meq/L
DBIL [4]: 0.004 mg/dL
GLC [4]: 190.6 mg/dL
IP [4]: 7.4 mg/dL
K [4]: 4.1 meq/L
LDH [4]: 185.4 IU/L
Na [4]: 142 meq/L
PL [4]: 127.6 mg/dL
RALB [4]: 3.1 g/dL
TBIL [4]: 0.014 mg/dL
TC [4]: 68.8 mg/dL
TG [4]: 73 mg/dL
TP [4]: 5.5 g/dL
gamma-GTP [4]: 1.2 IU/L
TERMINAL_BW [5]: 219.2 g
APTT [5]: 23.5 s
Bas [5]: 0%
Eos [5]: 0.8%
Fbg [5]: 315.2 mg/dL
Hb [5]: 13.5 g/dL
Ht [5]: 40.9%
Lym [5]: 78.4%
MCH [5]: 21 pg
MCHC [5]: 32.9%
MCV [5]: 63.9 fL
Mono [5]: 3%
Neu [5]: 17%
PT [5]: 16.4 s
Plat [5]: 126.9 x10_4/uL
RBC [5]: 640.8 x10_4/ul
Ret [5]: 7.8%
WBC [5]: 66.9 x10_2/uL
KIDNEY_L [5]: 0.9 g
KIDNEY_R [5]: 1 g
KIDNEY_TOTAL [5]: 1.9 g
LIVER [5]: 9.7 g
A/G [5]: 1.3
ALP [5]: 1534.6 IU/L
ALT [5]: 59 IU/L
AST [5]: 90.2 IU/L
BUN [5]: 11.8 mg/dL
CRE [5]: 0.1 mg/dL
Ca [5]: 10.8 mg/dL
Cl [5]: 105.4 meq/L
DBIL [5]: 0.036 mg/dL
GLC [5]: 181 mg/dL
IP [5]: 10.1 mg/dL
K [5]: 4.3 meq/L
LDH [5]: 211.8 IU/L
Na [5]: 141.6 meq/L
PL [5]: 135.4 mg/dL
RALB [5]: 3.2 g/dL
TBIL [5]: 0.024 mg/dL
TC [5]: 77.2 mg/dL
TG [5]: 47.4 mg/dL
TP [5]: 5.6 g/dL
gamma-GTP [5]: 1.2 IU/L
TERMINAL_BW [6]: 215.1 g
APTT [6]: 24 s
Bas [6]: 0%
Eos [6]: 0.4%
Fbg [6]: 348.2 mg/dL
Hb [6]: 13.5 g/dL
Ht [6]: 40.8%
Lym [6]: 72.4%
MCH [6]: 20.7 pg
MCHC [6]: 33.1%
MCV [6]: 62.7 fL
Mono [6]: 2.6%
Neu [6]: 23.4%
PT [6]: 16.5 s
Plat [6]: 123.7 x10_4/uL
RBC [6]: 650.4 x10_4/ul
Ret [6]: 7.5%
WBC [6]: 56.6 x10_2/uL
KIDNEY_L [6]: 0.9 g
KIDNEY_R [6]: 0.9 g
KIDNEY_TOTAL [6]: 1.9 g
LIVER [6]: 9.1 g
A/G [6]: 1.2
ALP [6]: 1235.6 IU/L
ALT [6]: 44.8 IU/L
AST [6]: 77.8 IU/L
BUN [6]: 9.8 mg/dL
CRE [6]: 0.2 mg/dL
Ca [6]: 10.7 mg/dL
Cl [6]: 106.4 meq/L
DBIL [6]: 0.018 mg/dL
GLC [6]: 184.8 mg/dL
IP [6]: 9.4 mg/dL
K [6]: 4.4 meq/L
LDH [6]: 237.2 IU/L
Na [6]: 141 meq/L
PL [6]: 130.2 mg/dL
RALB [6]: 3.1 g/dL
TBIL [6]: 0.016 mg/dL
TC [6]: 76 mg/dL
TG [6]: 42 mg/dL
TP [6]: 5.7 g/dL
gamma-GTP [6]: 1.4 IU/L
TERMINAL_BW [7]: 208.1 g
APTT [7]: 24 s
Bas [7]: 0%
Eos [7]: 0.6%
Fbg [7]: 316.4 mg/dL
Hb [7]: 13.6 g/dL
Ht [7]: 41.5%
Lym [7]: 76%
MCH [7]: 20.4 pg
MCHC [7]: 32.9%
MCV [7]: 62.2 fL
Mono [7]: 2.2%
Neu [7]: 20.8%
PT [7]: 16.4 s
Plat [7]: 129.1 x10_4/uL
RBC [7]: 667.2 x10_4/ul
Ret [7]: 7.4%
WBC [7]: 67.2 x10_2/uL
KIDNEY_L [7]: 0.9 g
KIDNEY_R [7]: 0.9 g
KIDNEY_TOTAL [7]: 1.8 g
LIVER [7]: 8.4 g
A/G [7]: 1.2
ALP [7]: 1643.2 IU/L
ALT [7]: 39.6 IU/L
AST [7]: 69.2 IU/L
BUN [7]: 10 mg/dL
CRE [7]: 0.2 mg/dL
Ca [7]: 10.5 mg/dL
Cl [7]: 106.2 meq/L
DBIL [7]: 0.026 mg/dL
GLC [7]: 187 mg/dL
IP [7]: 9.1 mg/dL
K [7]: 4.2 meq/L
LDH [7]: 178.8 IU/L
Na [7]: 141 meq/L
PL [7]: 133.6 mg/dL
RALB [7]: 3.1 g/dL
TBIL [7]: 0.016 mg/dL
TC [7]: 75.6 mg/dL
TG [7]: 43 mg/dL
TP [7]: 5.6 g/dL
gamma-GTP [7]: 1 IU/L
TERMINAL_BW [8]: 209.6 g
APTT [8]: 22.3 s
Bas [8]: 0%
Eos [8]: 0.8%
Fbg [8]: 311.2 mg/dL
Hb [8]: 13.7 g/dL
Ht [8]: 41.5%
Lym [8]: 77.8%
MCH [8]: 20.1 pg
MCHC [8]: 33%
MCV [8]: 60.8 fL
Mono [8]: 2.4%
Neu [8]: 19%
PT [8]: 16.8 s
Plat [8]: 138.5 x10_4/uL
RBC [8]: 684.4 x10_4/ul
Ret [8]: 6.4%
WBC [8]: 71.5 x10_2/uL
KIDNEY_L [8]: 0.9 g
KIDNEY_R [8]: 0.9 g
KIDNEY_TOTAL [8]: 1.9 g
LIVER [8]: 8.6 g
A/G [8]: 1.3
ALP [8]: 1472.4 IU/L
ALT [8]: 40.8 IU/L
AST [8]: 68 IU/L
BUN [8]: 14.6 mg/dL
CRE [8]: 0.2 mg/dL
Ca [8]: 10.7 mg/dL
Cl [8]: 107.6 meq/L
DBIL [8]: 0.018 mg/dL
GLC [8]: 185.2 mg/dL
IP [8]: 8.3 mg/dL
K [8]: 4.2 meq/L
LDH [8]: 190 IU/L
Na [8]: 142.4 meq/L
PL [8]: 139 mg/dL
RALB [8]: 3.1 g/dL
TBIL [8]: 0.018 mg/dL
TC [8]: 79.4 mg/dL
TG [8]: 43.4 mg/dL
TP [8]: 5.6 g/dL
gamma-GTP [8]: 1 IU/L
